Data reported in patent US20210253562A1, “ACYLSUFONAMIDE COMPOUNDS USEFUL AS EP3 RECEPTOR ANTAGONISTS” (Janssen Pharmaceutica NV, priority 2018, published 2021).
Read-outs that look alike come from different tables or passages of the source.

Tests used:
[1] = target: T1, EP3 membrane (EP3 receptor) (Homo sapiens, UniProt P43115); assay: [3H]-PGE2 binding; EP3 competition binding (SPA)
T1 construct: purchased Millipore HTS092M
T1 sequence (P43115 1-390): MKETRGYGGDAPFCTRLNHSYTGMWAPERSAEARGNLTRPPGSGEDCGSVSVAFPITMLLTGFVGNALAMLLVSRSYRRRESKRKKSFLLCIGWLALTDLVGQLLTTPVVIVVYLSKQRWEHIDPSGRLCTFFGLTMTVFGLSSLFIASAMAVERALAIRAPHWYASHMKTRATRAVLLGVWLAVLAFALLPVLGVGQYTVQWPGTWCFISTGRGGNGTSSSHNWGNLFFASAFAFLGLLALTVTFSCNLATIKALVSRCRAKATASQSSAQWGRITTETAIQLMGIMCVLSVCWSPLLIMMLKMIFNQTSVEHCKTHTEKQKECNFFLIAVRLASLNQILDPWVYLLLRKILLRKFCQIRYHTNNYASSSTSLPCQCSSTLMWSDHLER
Outline: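 SPA competition at room temperature, 2 h: EP3 membranes 2 μg/well, 2 nM [3H]-PGE2, 0.1% DMSO, in Tris/MgCl2/EDTA buffer pH 7.4. Compounds in 1:3 serial dilution; scintillation read; Ki by one-site nonlinear fit.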

[2] = target: T2, CHO cells over-expressing the EP3 receptor (Homo sapiens, UniProt P43115); assay: CHO cell cAMP assay; EP3 cAMP antagonist dose response (sulprostone reference), HTRF; assay type: cell-based; conditions: sulprostone 700 nM (EC80) and FSK 2 μM (EC70); read-out: CHO_cAMP IC50
T2 construct: expressed in transfected cells; host or cells: CHO cells
T2 sequence (P43115 1-390): T1 sequence (P43115 1-390)
Outline: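 EP3-overexpressing CHO cells pre-incubated with test compound, then stimulated 30 min at 37 °C with FSK (2 μM, EC70) plus sulprostone (700 nM, EC80); antagonism seen as restored cAMP. cAMP measured by HTRF 665/615 ratio, converted via on-plate standard curve. IC50 from Hill fit of 11-point dosing.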

Row | Ki [1] [nM] | IC50 [2] [nM] | Ki ([1]; unit nM) [nM] | SMILES
1 | 3 | 24 | – | O=C(NC/C(F)=C1\COCc2cnn(Cc3ccc(Cl)cc3Cl)c21)NS(=O)(=O)c1cc(Cl)c(Cl)s1 [Compound #54, (E)-4,5-dichloro-N-((2-(1-(2,4-dichlorobenzyl)-1,4-dihydropyrano[4,3-c]pyrazol-7(6H)-ylidene)-2-fluoroethyl)carbamoyl)thiophene-2-sulfonamide]
2 | 17 | 159 | – | O=C(NC/C(F)=C1\CCCc2cnn(Cc3ccc(Cl)cc3Cl)c21)NS(=O)(=O)c1cc2ccccc2s1 [Compound #121, (Z)—N-((2-(1-(2,4-dichlorobenzyl)-1,4,5,6-tetrahydro-7H-indazol-7-ylidene)-2-fluoroethyl)carbamoyl)benzo[b]thiophene-2-sulfonamide]
3 | 7 | 52 | – | O=C(NC/C(F)=C1\CCCc2cnn(Cc3ccc(C(F)(F)F)cc3)c21)NS(=O)(=O)c1cc(Cl)c(Cl)s1 [Compound #134, (Z)-4,5-dichloro-N-((2-fluoro-2-(1-(4-(trifluoromethyl)benzyl)-1,4,5,6-tetrahydro-7H-indazol-7-ylidene)ethyl)carbamoyl)thiophene-2-sulfonamide]
4 | > 10000 | > 20000 | – | COc1ccc(Cl)cc1S(=O)(=O)NC(=O)NC/C(F)=C1/CCCc2cnn(-c3ccc4ccccc4c3)c21 [Compound #106, (E)-5-chloro-N-((2-fluoro-2-(1-(naphthalen-2-yl)-1,4,5,6-tetrahydro-7H-indazol-7-ylidene)ethyl)carbamoyl)-2-methoxybenzenesulfonamide]
5 | 1 | 4 | – | O=C(NC/C=C1\CCCc2cnn(-c3ccc(Br)cc3)c21)NS(=O)(=O)c1cc(Cl)c(Cl)s1 [Compound #75, (E)-N-((2-(1-(4-bromophenyl)-1,4,5,6-tetrahydro-7H-indazol-7-ylidene)ethyl)carbamoyl)-4,5-dichlorothiophene-2-sulfonamide]
6 | 1 | 2 | – | O=C(CC/C=C1\CCCc2cnn(Cc3ccc(Cl)cc3Cl)c21)NS(=O)(=O)c1ccc(Cl)s1 [Compound #29, (E)-N-((5-chlorothiophen-2-yl)sulfonyl)-4-(1-(2,4-dichlorobenzyl)-1,4,5,6-tetrahydro-7H-indazol-7-ylidene)butanamide]
7 | 6 | 14 | – | O=C(NC/C=C1\CCCc2cnn(Cc3ccc(Cl)cc3Cl)c21)NS(=O)(=O)c1cc(F)cc(F)c1 [Compound #9, (E)-N-((2-(1-(2,4-dichlorobenzyl)-1,4,5,6-tetrahydro-7H-indazol-7-ylidene)ethyl)carbamoyl)-3,5-difluorobenzenesulfonamide]
8 | – | 4 | 0.4 | O=C(NC/C=C1\CCCc2cnn(-c3ccc(C(F)(F)F)cc3)c21)NS(=O)(=O)c1cc(Cl)c(Cl)s1 [Compound #85, (E)-4,5-dichloro-N-((2-(1-(4-(trifluoromethyl)phenyl)-1,4,5,6-tetrahydro-7H-indazol-7-ylidene)ethyl)carbamoyl)thiophene-2-sulfonamide]
9 | 7 | 13 | – | O=C(CC/C=C1\CCCc2cnn(Cc3ccc(Cl)cc3Cl)c21)NS(=O)(=O)c1cc2ccccc2s1 [Compound #31, (E)-N-(benzo[b]thiophen-2-ylsulfonyl)-4-(1-(2,4-dichlorobenzyl)-1,4,5,6-tetrahydro-7H-indazol-7-ylidene)butanamide]
10 | 3 | 5 | – | O=C(NC/C=C1/c2c(cnn2Cc2ccc(Cl)cc2Cl)CCC1F)NS(=O)(=O)c1ccc(Cl)cc1 (centres unmarked) [Compound #73, (Z)-4-chloro-N-((2-(1-(2,4-dichlorobenzyl)-6-fluoro-1,4,5,6-tetrahydro-7H-indazol-7-ylidene)ethyl)carbamoyl)benzenesulfonamide]
11 | 95 | 177 | – | COc1ccccc1S(=O)(=O)NC(=O)CC/C=C1\CCCc2cnn(Cc3ccc(Cl)cc3Cl)c21 [Compound #44, (E)-4-(1-(2,4-dichlorobenzyl)-1,4,5,6-tetrahydro-7H-indazol-7-ylidene)-N-((2-methoxyphenyl)sulfonyl)butanamide]
12 | 14 | 83 | – | O=C(C/C=C1\CCCc2cnn(Cc3ccc(Cl)cc3Cl)c21)NS(=O)(=O)c1cc(F)cc(F)c1 [Compound #19, (E)-3-(1-(2,4-dichlorobenzyl)-1,4,5,6-tetrahydro-7H-indazol-7-ylidene)-N-((3,5-difluorophenyl)sulfonyl)propenamide]
13 | 3 | 33 | – | O=C(C/C=C1\CCCc2cnn(Cc3ccc(Cl)cc3Cl)c21)NS(=O)(=O)c1cc(Cl)c(Cl)s1 [Compound #3, (E)-3-(1-(2,4-dichlorobenzyl)-1,4,5,6-tetrahydro-7H-indazol-7-ylidene)-N-((4,5-dichlorothiophen-2-yl)sulfonyl)propanamide]
14 | > 10000 | > 20000 | – | O=C(NC/C(F)=C1/CCCCc2cnn(Cc3ccc(Cl)cc3Cl)c21)NS(=O)(=O)c1ccc(Cl)cc1 [Compound #102, (E)-4-chloro-N-((2-(1-(2,4-dichlorobenzyl)-4,5,6,7-tetrahydrocyclohepta[c]pyrazol-8(1H)-ylidene)-2-fluoroethyl)carbamoyl)benzenesulfonamide]
15 | 37 | 272 | – | COc1ccc(F)cc1S(=O)(=O)NC(=O)NC/C(F)=C1\CCCc2cnn(Cc3ccc(Cl)cc3Cl)c21 [Compound #90, (Z)—N-((2-(1-(2,4-dichlorobenzyl)-1,4,5,6-tetrahydro-7H-indazol-7-ylidene)-2-fluoroethyl)carbamoyl)-5-fluoro-2-methoxybenzenesulfonamide]
16 | 920 | 4400 | – | CC(C)Cn1ncc2c1/C(=C/CNC(=O)NS(=O)(=O)c1ccc(Cl)cc1)CCC2 [Compound #80, (E)-4-chloro-N-((2-(1-isobutyl-1,4,5,6-tetrahydro-7H-indazol-7-ylidene)ethyl)carbamoyl)benzenesulfonamide]
17 | > 10000 | > 20000 | – | O=C(NS(=O)(=O)c1ccc(Cl)cc1)OC/C=C1\CCCc2cnn(-c3ncccn3)c21 [compound 95]
18 | 2 | 4 | – | Cc1nc(C)c(S(=O)(=O)NC(=O)NC/C=C2\CCCc3cnn(Cc4ccc(Cl)cc4Cl)c32)s1 [Compound #150, (E)-N-((2-(1-(2,4-dichlorobenzyl)-1,4,5,6-tetrahydro-7H-indazol-7-ylidene)ethyl)carbamoyl)-2,4-dimethylthiazole-5-sulfonamide]
19 | 29 | 548 | – | O=C(NC/C(F)=C1\CCCn2nnc(Cc3ccccc3)c21)NS(=O)(=O)c1cc(Cl)c(Cl)s1 [Compound #129, (Z)—N-((2-(3-benzyl-6,7-dihydro-[1,2,3]triazolo[1,5-a]pyridin-4(5H)-ylidene)-2-fluoroethyl)carbamoyl)-4,5-dichlorothiophene-2-sulfonamide]
20 | > 10000 | > 20000 | – | O=C(NC/C(F)=C1\COCc2cnn(-c3cccc(C(F)(F)F)c3)c21)NS(=O)(=O)c1ccc(Cl)cc1 [Compound #104, (E)-4-chloro-N-((2-fluoro-2-(1-(3-(trifluoromethyl)phenyl)-1,4-dihydropyrano[4,3-c]pyrazol-7(6H)-ylidene)ethyl)carbamoyl)benzenesulfonamide]
21 | 84 | 110 | – | O=C(/C=C/C=C1\CCCc2cnn(Cc3ccc(Cl)cc3Cl)c21)NS(=O)(=O)c1cc(Cl)c(Cl)s1 [Compound #6, (E)-4-((E)-1-(2,4-dichlorobenzyl)-1,4,5,6-tetrahydro-7H-indazol-7-ylidene)-N-((4,5-dichlorothiophen-2-yl)sulfonyl)but-2-enamide]
22 | – | 2 | 0.4 | O=C(NC/C=C1\CCCc2cnn(-c3ccc4ccccc4c3)c21)NS(=O)(=O)c1cc(Cl)c(Cl)s1 [Compound #79, (E)-4,5-dichloro-N-((2-(1-(naphthalen-2-yl)-1,4,5,6-tetrahydro-7H-indazol-7-ylidene)ethyl)carbamoyl)thiophene-2-sulfonamide]
23 | 7 | 60 | – | Cc1nn(Cc2ccc(Cl)cc2Cl)c2c1CCC/C2=C(/F)CNC(=O)NS(=O)(=O)c1cc(Cl)c(Cl)s1 [Compound #109, (Z)-4,5-dichloro-N-((2-(1-(2,4-dichlorobenzyl)-3-methyl-1,4,5,6-tetrahydro-7H-indazol-7-ylidene)-2-fluoroethyl)carbamoyl)thiophene-2-sulfonamide]
24 | 1100 | 4200 | – | COc1ccc(Cl)cc1S(=O)(=O)NC(=O)NC/C(F)=C1\CCCc2cnn(-c3ccc4ccccc4c3)c21 [Compound #115, (Z)-5-chloro-N-((2-fluoro-2-(1-(naphthalen-2-yl)-1,4,5,6-tetrahydro-7H-indazol-7-ylidene)ethyl)carbamoyl)-2-methoxybenzenesulfonamide]
25 | 5 | 14 | – | O=C(NC/C=C1\CC(F)(F)Cc2cnn(Cc3ccc(Cl)cc3Cl)c21)NS(=O)(=O)c1ccc(Cl)cc1 [Compound #48, (E)-4-chloro-N-((2-(1-(2,4-dichlorobenzyl)-5,5-difluoro-1,4,5,6-tetrahydro-7H-indazol-7-ylidene)ethyl)carbamoyl)benzenesulfonamide]
